Test results taken from US6001808A, “Method of treating herpes virus infections with spermostatic gramicidin” (Metatron, Inc., priority 1997, dated 1999).
Values after ≈ are worked out from the molar mass of the structure shown. Where two headings read alike, the source gives them in different places.

Columns and labels:
HSV-1 = assay: HSV antigen ELISA, viral yield in WI-38 fibroblasts at 24 hours; format: cell-based, herpes simplex virus type 1 (HSV-1)
Method: (§1) The effect of gramicidin on the replication of herpes simplex viruses (HSV) type 1 and 2 has been examined and compared to the effect of acyclovir--the nucleoside analog used in the prior art for the therapy of herpes virus infections. Human WI-38 fibroblasts were inoculated with either type of HSV in the presence of serial dilutions of gramicidin (10-0.001 mcg/ml) and reduction in viral yield was measured at 24 hours by ELISA. […] The average 50% inhibitory dose (IC50) of gramicidin against 3 HSV-1 and 4 HSV-2 solates was equal to 0.3 mcg/ml and was similar to the efficacy of the anti-HSV agent acyclovir (ACV). The IC50 of a single dose of gramicidin required to protect WI-38 from cytolytic effect of HSV was 10 mcg/ml at day 5 postinfection. Importantly, gramicidin suppressed the replication of ACV-resistant thymidine kinase and polymerase HSV mutants at doses effective against ACV-sensitive strains.
(§2) Human embryonic lung fibroblasts WI-38 (CCL-75, ATCC, Rockville, Md.) were grown in RPMI medium 1640 with 10% FBS, L-glutamine, and penicillin/streptomycin (GIBCO, Grand Island, N.Y.) at 37° C. with 5% CO2 air atmosphere. Herpes viruses that were tested for susceptibility to gramicidin are own in Table 1.
(§3) One day prior to the assay WI-38 monolayers were trypsinized with 0.25% trypsin/EDTA (Sigma) and plated in 96-well microculture plates at seeding concentration 10^5 cells per well. The next day triplicate wells of WI-38 monolayers were exposed to serial 10-fold dilutions (range 10 mcg/ml-1 ng/ml) of gramicidin or ACV. Positive control wells and drug-exposed wells containing 180 mcl of medium received 20 mcl ahquots of HSV-1 or HSV-2 preparation at 5,000 TCID50 per well and were incubated further for 24 hours. Thereupon, the supernatants from infected WI-38 fibroblasts were collected and levels of HSV antigen were examined by ELISA (Premier™ HSV, Meridian Diagnostics Inc., Cincinnati, Ohio) according to the manufacturer's instructions. The primary antibody supplied with this ELISA kit recognizes HSV antigens of both virus types. The amount of HSV antigen, corresponding to levels in the inoculum, was subtracted as a blank value from experimental values reached upon virus propagation in host WI-38 cells. IC50 doses were estimated from dose-response curves plotted as a function of log concentrations of drugs.

VR-734 strain of HSV-2 = assay: Protection of WI-38 fibroblasts against cytolytic action of HSV, MTS assay day 5; format: cell-based, herpes simplex virus type 2 (HSV-2); conditions: day 5 postinfection, single dose
Method: Inoculated WI-38 cells were grown in the presence of ten-fold dilutions of gramicidin or ACV for five days until all untreated control cells were dead as a result of lytic HSV infection. The culture wells were then exposed for 4 hours to MTS tetrasolium salt and phenazine methosulfate preparation (Cell Titer^96, Promega, Madison, Wis.) and the optical density of formazan dye was measured in a plate reader at 450 nm with reference filter at 620 nm. The obtained values were then compared to both the absorbance values of dead cells and optical density of uninfected viable cells grown in the same plate. The percent of surviving WI-38 cells in drug-protected cultures was determined from dose-response curves as a function of log concentrations of test drugs.

HSV-2 = assay: HSV antigen ELISA, viral yield in WI-38 fibroblasts at 24 hours; format: cell-based, herpes simplex virus type 2 (HSV-2)
Method: as §1, §2, §3

WI-38 cells [1] = assay: Viability of WI-38 cells by MTS assay
Method: (§4) The effect of test compounds on cell viability was measured by two colorimetric assays as follows. WI-38 cells were grown in the presence or absence of ten-fold dilutions of gramicidin or ACV for two days. The cells were then exposed to MTS/phenazine methosulfate as described above. The conditions for the second, lactate dehydrogenase (LDH) assay, were similar to the MTS test except that a different cell viability parameter was measured. This assay quantitatively measures the stable cytosolic enzyme, LDH, that is released upon cell lysis in much the same way as ^51 Cr is released in radioactive assays. The results were evaluated using an enzymatic assay which measures the conversion of INT tetrazolium salt into red formazan product (CytoTox^96, Promega, Madison, Wis.). A standard 96-well plate reader was set to record wavelength absorbance at 490 nm. The residual LDH activity present in incubation medium was subtracted as a blank value. The amount of LDH released from drug-exposed cells was compared to untreated and detergent-lysed controls according to the formula provided by the manufacturer.

sperm motility = assay: 2-minute sperm immobilization assay (sperm motility by CASA); format: cell-based, human; conditions: for times higher dose required to achieve the effect of gramicidin: sperm motility, compounds alone
Method: The tests were conducted on unprocessed semen samples. […] Ejaculate samples from 3 normospermic volunteers were collected after 2-4 days of abstinence and allowed to liquefy for 20 minutes at 37° C. The sperm count was within the range of 60-240×10^6 cells/ml and the percentage of motile cells was over 50%. Serial dilutions of gramicidin, nonoxynol-9, EDTA or combinations thereof were mixed with fresh semen and sperm count, motility and morphology were assessed using computer-assisted semen analysis (CASA). Each 50 mcl sample of semen was mixed in a glass tube with predetermined concentration of test compounds, vortexed for 10 seconds, and left at room temperature for 2 minutes. Thereupon, a small 10 mcl portion of the sample was placed on a glass slide and motility of the sperm was evaluated automatically.

[2] = test system: sperm penetration into lamb cervical mucus; assay: Cervical mucus penetration assay; format: cell-based, human; conditions: for motility of spermatozoa found in drug-pretreated mucus: at the time of observation, N9 even after 1 hour of incubation
Method: Glass capillary tubes (1 mm×100 mm) were filled with freshly collected lamb cervical mucus and placed vertically into solutions with test compounds as described earlier. After 30 minutes, incubation to allow the diffusion of drugs into mucus, the mucus-containing tubes were dipped vertically into cuvettes with the semen. After 15 minutes, the sperm that moved upwards from the bottom of the capillary tube was evaluated under microscope for traveled distance and the percent of motile sperm.

HSV type 1 and 2 = assay: HSV antigen ELISA, summary over HSV-1 and HSV-2 isolates; format: cell-based, herpes simplex viruses (HSV) type 1 and 2
sperm viability [3] = assay: Lactate dehydrogenase (LDH) release assay on sperm; format: cell-based, human; conditions: high doses, serial dilutions 100 mcg-1 ng per ml
Description: The disruption of the sperm membrane by N9-like detergents such as Triton X-100 or by gramicidin S leads to release of intracellular LDH isoenzymes or membrane-associated LDH-X, and an increase in LDH activity can be measured by assaying the supernatant of sperm suspension. The increase in LDH activity can be thus used as an indicator of drug toxicity since cytosolic LDH is released upon cell lysis in the same way as 51Cr is released in radioactive assays. The assay setting is similar to XTT assay and released LDH is quantitated with commercial enzymatic assay (CytoTox96, Promega, Madison, Wis.). An ordinary plate reader was used to record visible wavelength absorbance at 490 nm. The residual LDH activity usually present in seminal plasma or in incubation medium was subtracted as blank values and the % of toxicity was determined as directed by manufacturer's instruction. This assay is very sensitive and results are obtained within 30 minutes.
(§5) These two methods, XTT and LDH, were used simultaneously on the same semen samples to determine the toxic effect of gramicidin. Both quantitative tests, measuring two independent indicators of sperm viability, indicate that gramicidin is a potent nontoxic agent with antifertility potential.

WI-38 cells [4] = assay: LDH release from drug-exposed WI-38 cells; conditions: 2 days of treatment, highest 10 mcg dose
Method: as §4

sperm viability [5] = assay: Tetrazolium dye reduction (XTT) assay on sperm; format: cell-based, human; conditions: highest 100 mcg/ml concentration
Method: The spermatozoa from fertile donors are capable of nitroblue tetrazolium reduction in a same way as the fibroblasts in Example 1. Briefly, sperm were suspended in a 96-well plate in the presence of serial ten-fold dilutions of test compounds and each 180 mcl well received 20 mcl of XTT solution at final concentration 1 mg/ml of XTT (Sigma) with 1% w/v of PMS (Aldrich, Milwaukee, Wis.). Drug untreated spermatozoa served as positive viability references.
as §5

HIV = conditions: 10 ng/ml; cited from earlier work
[6] = 0% EDTA, 2 minutes, unprocessed semen
[7] = 0.1% EDTA, 2 minutes, unprocessed semen

## Nc1nc2c(ncn2COCCO)c(=O)[nH]1 [Acyclovir, [2-hydroxyethoxymethyl]guanine]
HSV-1; Human alphaherpesvirus 1, WI-38, read-out: IC50 by HSV antigen ELISA, HSV type 1 strain DM2.1, TK-
  IC50: 77.3 µg/mL (≈ 343 µM)
HSV-1; Human alphaherpesvirus 1, WI-38, read-out: IC50 by HSV antigen ELISA, HSV type 1 strain KOS, ACV-sensitive
  IC50: 0.4 µg/mL (≈ 1.78 µM)
HSV-1; Human alphaherpesvirus 1, WI-38, read-out: IC50 by HSV antigen ELISA, HSV type 1 strain PAAr, Polymerase-
  IC50: 52.4 µg/mL (≈ 233 µM)
VR-734 strain of HSV-2; Human alphaherpesvirus 2, WI-38, 120 h, read-out: IC50 for protection of WI-38 from cytolytic effect of HSV
  IC50: 0.2 µg/mL (≈ 0.888 µM)
HSV-2; Human alphaherpesvirus 2, WI-38, 24 h, read-out: IC50 on HSV replication by antigen ELISA, VR-734 strain of HSV-2, WI-38 cells, day 1 postinfection
  IC50: 0.2 µg/mL (≈ 0.888 µM)
HSV-2; Human alphaherpesvirus 2, WI-38, read-out: IC50 by HSV antigen ELISA, HSV type 2 strain 186, ACV-sensitive
  IC50: 0.1 µg/mL (≈ 0.444 µM)
HSV-2; Human alphaherpesvirus 2, WI-38, read-out: IC50 by HSV antigen ELISA, HSV type 2 strain 8708, TK altered
  IC50: 9.9 µg/mL (≈ 44 µM)
HSV-2; Human alphaherpesvirus 2, WI-38, read-out: IC50 by HSV antigen ELISA, HSV type 2 strain Kost, TK altered
  IC50: 15.8 µg/mL (≈ 70.2 µM)
HSV-2; Human alphaherpesvirus 2, WI-38, read-out: IC50 by HSV antigen ELISA, HSV type 2 strain VR-734, ACV-sensitive
  IC50: 0.2 µg/mL (≈ 0.888 µM)
WI-38 cells [1]
  toxicity to host WI-38 cells: not toxic

## O=C(O)CN(CCN(CC(=O)O)CC(=O)O)CC(=O)O [EDTA, ethylenediaminetetraacetic acid]
Sperm motility; [6]
  IC100 on sperm motility: 5,000 mcg/ml
Sperm motility
  times higher dose required to achieve the effect of gramicidin: ≥ 1250 times
[2]; 0% EDTA
  IC100 in cervical mucus penetration assay: 1,200 mcg/ml

## CCCCCCCCCc1ccc(OCCOCCOCCOCCOCCOCCOCCOCCOCCO)cc1 [Nonoxynol-9, nonoxynol-9]
Sperm motility
  enhancement in activity upon combination with EDTA: less than a two-fold enhancement
  times higher dose required to achieve the effect of gramicidin: At least 50 times
Sperm motility; [6]
  IC100 on sperm motility: 200 µg/mL
Sperm motility; [7]
  IC100 on sperm motility: 125 µg/mL
Sperm motility; at 4 mcg/ml, 2 minutes
  effect on sperm motility: no effect
[2]; 0% EDTA, no IC100 at the highest tested dose
  IC100 in cervical mucus penetration assay: > 1000 µg/mL
[2]; 0.1% EDTA
  IC100 in cervical mucus penetration assay: 100 µg/mL
[2]; Homo sapiens, Sperm, 0% EDTA, footnote: value represents IC50
  IC50: 900 µg/mL (≈ 1460 µM)
[2]
  motility of spermatozoa found in drug-pretreated mucus: retained motility

## gramicidin D
HSV-1; HSV type 1 strain DM2.1, TK-
  IC50 by HSV antigen ELISA: 0.3 µg/mL
HSV-1; HSV type 1 strain KOS, ACV-sensitive
  IC50 by HSV antigen ELISA: 0.2 µg/mL
HSV-1; HSV type 1 strain PAAr, Polymerase-
  IC50 by HSV antigen ELISA: 0.4 µg/mL
HSV type 1 and 2; average against 3 HSV-1 and 4 HSV-2 isolates
  average 50% inhibitory dose (IC50): 0.3 µg/mL
HSV type 1 and 2; both HSV type 1 and 2, 24 hours, range over isolates
  IC50, reduction in viral yield by ELISA: 0.1 to 0.4 µg/mL
VR-734 strain of HSV-2
  IC50 for protection of WI-38 from cytolytic effect of HSV: 10 µg/mL
Sperm viability [3]
  effect on LDH release from sperm: negligible
Sperm motility; [6]
  IC100 on sperm motility: 4 µg/mL
Sperm motility; [7]
  IC100 on sperm motility: 0.01 µg/mL
Sperm motility; after washing sperm and resuspending in Earle's balanced salt solution
  reversibility of effect on sperm motility: irreversible effect
Sperm motility; sperm immobilization, without EDTA
  times more potent than N9: 50 times
Sperm motility; with 0.1% of EDTA
  IC100 on sperm motility: 0.01 µg/mL
WI-38 cells [4]
  excess LDH released, relative to baseline of untreated controls: ≤ 15%
Sperm viability [5]
  effect on mitochondrial hydrogenases of sperm (XTT): no effect
HIV
  activity against lab strains and clinical isolates of HIV: active
HSV-2; HSV type 2 strain 186, ACV-sensitive
  IC50 by HSV antigen ELISA: 0.1 µg/mL
HSV-2; HSV type 2 strain 8708, TK altered
  IC50 by HSV antigen ELISA: 0.3 µg/mL
HSV-2; HSV type 2 strain Kost, TK altered
  IC50 by HSV antigen ELISA: 0.2 µg/mL
HSV-2; HSV type 2 strain VR-734, ACV-sensitive
  IC50 by HSV antigen ELISA: 0.3 µg/mL
HSV-2; VR-734 strain of HSV-2, WI-38 cells, day 1 postinfection
  IC50 on HSV replication by antigen ELISA: 0.3 µg/mL
[2]; 0% EDTA
  IC100 in cervical mucus penetration assay: 3 µg/mL
[2]; 0.1% EDTA
  IC100 in cervical mucus penetration assay: 0.001 µg/mL
[2]
  motility of spermatozoa found in drug-pretreated mucus: immotile
[2]; with 0.1% of EDTA
  concentration that completely prevented penetration of sperm into mucus: 1 ng/mi
WI-38 cells [1]; MTS, day 2, highest tested 10 mcg/ml dose
  effect on viability (metabolic activity) of WI-38 cells: no significant effect
WI-38 cells [1]; at concentrations that exceeded IC50 by at least two orders of magnitude
  toxicity to host WI-38 cells: not toxic
